Data published in patent US6538005B2, “Phenanthridine-N-oxides with PDE-IV inhibiting activity” (ALTANA Pharma AG, priority 1999, dated 2003).

What was measured:
[1] = system: PDE4; experiment: Inhibition of PDE4 activity (method of Bauer and Schwabe, adapted to microtiter plates); assay type: biochemical; conditions: inhibitory concentration as −log IC50 (mol/l)
Text: The activity test can be carried out, for example, according to the method of Bauer and Schwabe. For this, the method is adapted to microfiter plates (Naunyn-Schmiedeberg's Arch. Pharmacol. 1980, 311, 193-198). The PDE reaction takes place in the first step here. In a second step, the resulting 5′-nucleotide is cleaved by a 5′-nucleotidase of the snake venom of Crotalus atrox to the uncharged nucleoside. In the third step, the nucleoside is separated from the remaining charged substrate on ion-exchange columns. The columns are eluted directly into minivials, into which 2 ml of scintillator fluid are additionally added for counting, using 2 ml of 30 mM ammonium formate (pH 6.0).
The inhibitory values determined for the compounds according to the invention [inhibitory concentration as −log IC50 (mol/l)] follow from the following Table A, in which the numbers of the compounds correspond to the numbers of the examples.

COc1ccc(NC(=O)c2cccc(C3=[N+]([O-])C4CCCCC4c4cc(OC)c(OC)cc43)c2)cc1 (single isomer, unassigned; (-)) [Compound 1, (−)-cis-8,9-Dimethoxy-6-[3-(4-methoxyphenylamido)phenyl]-1,2,3,4,4a,10b-hexahydrophenanthridine-5-N-oxide]
−log IC50 [1]: 6.73 mol/l
melting point: 229 to 230 °C
